Source: ChEMBL document CHEMBL3046894, “Synthesis and Herbicidal Activity of Pyrimidinyl Salicylic and Thiosalicylic Acids” (J Pestic Sci, 1996)
The source made the active and inactive calls. No cut-off for these calls is given here.

Columns and labels:
Echinochloa crus-galli [1] = test: Pre-emergence herbicidal activity against Echinochloa crus-galli (barnyard grass) assessed as mortality at 6.3 g a.i/10 a; type: functional
Ipomoea lacunosa [2] = test: Post-emergence herbicidal activity against Ipomoea lacunosa assessed as mortality at 6.3 g a.i/10 a applied 11 days after germination as foliar spray; type: functional; details: 264 h
Abutilon theophrasti [3] = test: Post-emergence herbicidal activity against Abutilon theophrasti (velvetleaf) assessed as mortality at 1.6 g a.i/10 a applied 11 days after germination as foliar spray; type: functional; details: 264 h
Abutilon theophrasti [4] = test: Post-emergence herbicidal activity against Abutilon theophrasti (velvetleaf) assessed as mortality at 6.3 g a.i/10 a applied 11 days after germination as foliar spray; type: functional; details: 264 h
[5] = (§1) Pre-emergence phytotoxicity against Gossypium hirsutum (cotton) assessed as mortality at 6.3 g a.i/10 a; type: organism-based; details: in vivo, 6.3 g a.i/10 a, read-out: Activity
Gossypium hirsutum [6] = test: Pre-emergence phytotoxicity against Gossypium hirsutum (cotton) assessed as mortality at 1.6 g a.i/10 a; type: organism-based; details: in vivo, other
[7] = (§2) Pre-emergence phytotoxicity against Glycine max (soybean) assessed as mortality at 1.6 g a.i/10 a; type: organism-based; details: in vivo, 1.6 g a.i/10 a, read-out: Activity
[8] = Pre-emergence phytotoxicity against Glycine max (soybean) assessed as mortality at 6.3 g a.i/10 a; type: organism-based; details: in vivo, 6.3 g a.i/10 a
[9] = Pre-emergence phytotoxicity against Zea mays (maize) assessed as mortality at 1.6 g a.i/10 a; type: organism-based; details: in vivo, 1.6 g a.i/10 a
Zea mays [10] = test: Pre-emergence phytotoxicity against Zea mays (maize) assessed as mortality at 6.3 g a.i/10 a; type: organism-based; details: in vivo, other
Gossypium hirsutum [11] = test: Post-emergence phytotoxicity against Gossypium hirsutum (cotton) assessed as mortality at 1.6 g a.i/10 a applied 11 days after germination as foliar spray; type: organism-based; details: in vivo, other, 264 h
[12] = (§3) Post-emergence phytotoxicity against Gossypium hirsutum (cotton) assessed as mortality at 6.3 g a.i/10 a applied 11 days after germination as foliar spray; type: organism-based; details: in vivo, 6.3 g a.i/10 a
Glycine max [13] = test: Post-emergence phytotoxicity against Glycine max (soybean) assessed as mortality at 6.3 g a.i/10 a applied 11 days after germination as foliar spray; type: organism-based; details: in vivo, other, 264 h
Glycine max [14] = test: (§4) Post-emergence phytotoxicity against Glycine max (soybean) assessed as mortality at 1.6 g a.i/10 a applied 11 days after germination as foliar spray; type: organism-based; details: in vivo, other, 264 h
Zea mays [15] = test: (§5) Post-emergence phytotoxicity against Zea mays (maize) assessed as mortality at 1.6 g a.i/10 a applied 11 days after germination as foliar spray; type: organism-based; details: in vivo, other, 264 h
Echinochloa crus-galli [16] = test: Post-emergence herbicidal activity against Echinochloa crus-galli (barnyard grass) assessed as mortality at 1.6 g a.i/10 a applied 11 days after germination as foliar spray; type: functional; details: 264 h
Echinochloa crus-galli [17] = test: Post-emergence herbicidal activity against Echinochloa crus-galli (barnyard grass) assessed as mortality at 6.3 g a.i/10 a applied 11 days after germination as foliar spray; type: functional; details: 264 h
Xanthium strumarium [18] = test: Pre-emergence herbicidal activity against Xanthium strumarium (cocklebur) assessed as mortality at 1.6 g a.i/10 a; type: functional
Xanthium strumarium [19] = test: Pre-emergence herbicidal activity against Xanthium strumarium (cocklebur) assessed as mortality at 6.3 g a.i/10 a; type: functional
Ipomoea lacunosa [20] = test: Pre-emergence herbicidal activity against Ipomoea lacunosa assessed as mortality at 1.6 g a.i/10 a; type: functional
Ipomoea lacunosa [21] = test: Pre-emergence herbicidal activity against Ipomoea lacunosa assessed as mortality at 6.3 g a.i/10 a; type: functional
Abutilon theophrasti [22] = test: Pre-emergence herbicidal activity against Abutilon theophrasti (velvetleaf) assessed as mortality at 1.6 g a.i/10 a; type: functional
Abutilon theophrasti [23] = test: Pre-emergence herbicidal activity against Abutilon theophrasti (velvetleaf) assessed as mortality at 6.3 g a.i/10 a; type: functional
Echinochloa crus-galli [24] = test: Pre-emergence herbicidal activity against Echinochloa crus-galli (barnyard grass) assessed as mortality at 1.6 g a.i/10 a; type: functional
Xanthium strumarium [25] = test: Post-emergence herbicidal activity against Xanthium strumarium (cocklebur) assessed as mortality at 6.3 g a.i/10 a applied 11 days after germination as foliar spray; type: functional; details: 264 h
Ipomoea lacunosa [26] = test: Post-emergence herbicidal activity against Ipomoea lacunosa assessed as mortality at 1.6 g a.i/10 a applied 11 days after germination as foliar spray; type: functional; details: 264 h
Gossypium hirsutum [27] = test: as §1; type: organism-based; details: in vivo, other
Glycine max [28] = test: as §2; type: organism-based; details: in vivo, other
Gossypium hirsutum [29] = test: as §3; type: organism-based; details: in vivo, other, 264 h
[30] = as §4; type: organism-based; details: in vivo, 1.6 g a.i/10 a
[31] = as §5; type: organism-based; details: in vivo, 1.6 g a.i/10 a
Cyperus iria [32] = test: Pre-emergence herbicidal activity against Cyperus iria assessed as growth inhibition at 25 g a.i/10 a; type: functional, organism-based
Chenopodium album [33] = test: Pre-emergence herbicidal activity against Chenopodium album assessed as growth inhibition at 25 g a.i/10 a; type: functional, organism-based
Amaranthus retroflexus [34] = test: Pre-emergence herbicidal activity against Amaranthus retroflexus assessed as growth inhibition at 25 g a.i/10 a; type: functional, organism-based
Persicaria nodosa [35] = test: Pre-emergence herbicidal activity against Persicaria nodosa assessed as growth inhibition at 25 g a.i/10 a; type: functional, organism-based
Digitaria sanguinalis [36] = test: Pre-emergence herbicidal activity against Digitaria sanguinalis (hairy crabgrass) assessed as growth inhibition at 25 g a.i/10 a; type: functional, organism-based
Echinochloa crus-galli [37] = test: Pre-emergence herbicidal activity against Echinochloa crus-galli (barnyard grass) assessed as growth inhibition at 25 g a.i/10 a; type: functional, organism-based
Cyperus iria [38] = test: Post-emergence herbicidal activity against Cyperus iria assessed as growth inhibition at 25 g a.i/10 a applied 11 days after germination as foliar spray; type: functional, organism-based
Chenopodium album [39] = test: Post-emergence herbicidal activity against Chenopodium album assessed as growth inhibition at 25 g a.i/10 a applied 11 days after germination as foliar spray; type: functional, organism-based
Amaranthus retroflexus [40] = test: Post-emergence herbicidal activity against Amaranthus retroflexus assessed as growth inhibition at 25 g a.i/10 a applied 11 days after germination as foliar spray; type: functional, organism-based
Persicaria nodosa [41] = test: Post-emergence herbicidal activity against Persicaria nodosa assessed as growth inhibition at 25 g a.i/10 a applied 11 days after germination as foliar spray; type: functional, organism-based
Digitaria sanguinalis [42] = test: Post-emergence herbicidal activity against Digitaria sanguinalis (hairy crabgrass) assessed as growth inhibition at 25 g a.i/10 a applied 11 days after germination as foliar spray; type: functional, organism-based
Echinochloa crus-galli [43] = test: Post-emergence herbicidal activity against Echinochloa crus-galli (barnyard grass) assessed as growth inhibition at 25 g a.i/10 a applied 11 days after germination as foliar spray; type: functional, organism-based
Zea mays [44] = test: Post-emergence phytotoxicity against Zea mays (maize) assessed as mortality at 6.3 g a.i/10 a applied 11 days after germination as foliar spray; type: organism-based; details: in vivo, other, 264 h
Xanthium strumarium [45] = test: Post-emergence herbicidal activity against Xanthium strumarium (cocklebur) assessed as mortality at 1.6 g a.i/10 a applied 11 days after germination as foliar spray; type: functional; details: 264 h
[46] = Abutilon theophrasti, pre-emergence

COc1cc(OC)nc(Sc2cccc(OC(C)C)c2C(=O)O)n1
Activity (Echinochloa crus-galli [1]): <50% | mortality at 63 g/ha (Ipomoea lacunosa [2]): > 90% | mortality at 16 g/ha (Abutilon theophrasti [3]): > 90% | mortality at 63 g/ha (Abutilon theophrasti [4]): > 90% | mortality [5]: < 50% | Activity (Gossypium hirsutum [6]): < 50% | mortality [7]: < 50% | mortality ([8]; read-out: Activity): < 50% | mortality ([9]; read-out: Activity): < 50% | Activity (Zea mays [10]): < 50% | Activity (Gossypium hirsutum [11]): Non-toxic | mortality at 264 h [12]: > 90% | Activity (Glycine max [13]): Toxic | Activity (Glycine max [14]): Toxic | Activity (Zea mays [15]): Toxic | mortality at 16 g/ha (Echinochloa crus-galli [16]): < 5% | mortality at 63 g/ha (Echinochloa crus-galli [17]): < 5% | Activity (Xanthium strumarium [18]): <50% | Activity (Xanthium strumarium [19]): <50% | Activity (Ipomoea lacunosa [20]): <50% | Activity (Ipomoea lacunosa [21]): <50% | Activity (Abutilon theophrasti [22]): <50% | Activity (Abutilon theophrasti [23]): <50% | Activity (Echinochloa crus-galli [24]): <50%

COc1cc(OC)nc(Oc2cccc(I)c2C(=O)O)n1
mortality at 63 g/ha (Echinochloa crus-galli [1]; Echinochloa crus-galli, pre-emergence): > 90% | mortality at 63 g/ha (Xanthium strumarium [25]): > 90% | mortality at 16 g/ha (Ipomoea lacunosa [26]): > 90% | mortality at 63 g/ha (Ipomoea lacunosa [2]): > 90% | mortality at 16 g/ha (Abutilon theophrasti [3]): > 90% | mortality at 63 g/ha (Abutilon theophrasti [4]): > 90% | Activity (Gossypium hirsutum [27]): Non-toxic | Activity (Gossypium hirsutum [6]): Non-toxic | Activity (Glycine max [28]): Toxic | mortality ([8]; read-out: mortality): > 90% | mortality ([9]; read-out: mortality): > 90% | Activity (Gossypium hirsutum [11]): Toxic | Activity (Gossypium hirsutum [29]): Toxic | mortality at 264 h [30]: > 90% | mortality at 264 h [31]: > 90% | mortality at 63 g/ha (Echinochloa crus-galli [17]): > 90% | growth inhibition (GI) (Cyperus iria [32]): Active | growth inhibition (GI) (Chenopodium album [33]): Active | growth inhibition (GI) (Amaranthus retroflexus [34]): Active | growth inhibition (GI) (Persicaria nodosa [35]): Active | growth inhibition (GI) (Digitaria sanguinalis [36]): Active | growth inhibition (GI) (Echinochloa crus-galli [37]): Active | growth inhibition (GI) (Cyperus iria [38]): Active | growth inhibition (GI) (Chenopodium album [39]): Active | growth inhibition (GI) (Amaranthus retroflexus [40]): Active | growth inhibition (GI) (Persicaria nodosa [41]): Active | growth inhibition (GI) (Digitaria sanguinalis [42]): Active | growth inhibition (GI) (Echinochloa crus-galli [43]): Active | mortality at 16 g/ha (Xanthium strumarium [18]; Xanthium strumarium, pre-emergence): < 5% | mortality at 16 g/ha (Ipomoea lacunosa [20]; Ipomoea lacunosa, pre-emergence): < 5% | mortality at 16 g/ha (Abutilon theophrasti [22]; [46]): > 90% | mortality at 63 g/ha (Abutilon theophrasti [23]; [46]): > 90%

CCCOc1cccc(Sc2nc(OC)cc(OC)n2)c1C(=O)O
Activity (Echinochloa crus-galli [1]): <50% | mortality at 16 g/ha (Ipomoea lacunosa [26]): < 5% | mortality at 63 g/ha (Ipomoea lacunosa [2]): < 5% | Activity (Gossypium hirsutum [27]): Non-toxic | Activity (Gossypium hirsutum [6]): Non-toxic | mortality [7]: < 50% | mortality ([8]; read-out: Activity): < 50% | mortality ([9]; read-out: Activity): < 50% | Activity (Zea mays [10]): < 50% | Activity (Gossypium hirsutum [11]): Non-toxic | Activity (Gossypium hirsutum [29]): Toxic | Activity (Glycine max [13]): Toxic | Activity (Glycine max [14]): Non-toxic | Activity (Zea mays [15]): Non-toxic | Activity (Zea mays [44]): Toxic | mortality at 16 g/ha (Xanthium strumarium [45]): < 5% | mortality at 16 g/ha (Echinochloa crus-galli [16]): < 5% | mortality at 63 g/ha (Echinochloa crus-galli [17]): < 5% | Activity (Xanthium strumarium [18]): <50% | Activity (Xanthium strumarium [19]): <50% | Activity (Ipomoea lacunosa [20]): <50% | Activity (Ipomoea lacunosa [21]): <50% | Activity (Abutilon theophrasti [22]): <50% | Activity (Echinochloa crus-galli [24]): <50%
